Measurements published in US20220153751A1, “BIFUNCTIONAL COMPOUNDS” (BioTheryX, Inc., priority 2018, published 2022).

Legend:
Type in all cases: cell-based
IL-6 = IL-6 inhibition assay, LPS-induced PBMCs / CD14+ monocytes (Meso Scale); conditions: 1 h pretreatment, 100 ng/mL LPS 18-24 h
Outline: (§1)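 Thawed human PBMCs or CD14+ mobilized peripheral blood monocytes, 200,000 cells/well in RPMI-1640/10% FBS, pretreated with compound or DMSO 1 h, then stimulated with 100 ng/mL LPS for 18-24 h. Supernatant cytokine measured by Meso Scale; % inhibition binned A–D (<50%, 50–70%, 70–90%, ≥90%), fold-change binned A–D (≤0.1, ≤0.5, ≤1, >1).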

IL-2 = IL-2 fold-change assay, anti-CD3 stimulated PBMCs (Mesoscale); conditions: PBMC, PBMCs on anti-human CD3, 24 h, fold difference from the DMSO control
Description: For the IL-2 analysis, 96 well plates were precoated with 1 μg/mL anti-human CD3 antibody (OK3, eBioscience Inc., San Diego, Calif.). After washing with PBS, the indicated compound was added (50 μL/well) followed by PBMCs diluted at 3-4 million cells/mL (150 μL/well). Plates were incubated for 24 h and the supernatants collected for Mesoscale IL-2 analysis. IL-2 activity is measured as fold difference from the DMSO control.
In Table 6, the % inhibition values are reported as “A”, “B”, “C”, or “D”. “A” represents a % inhibition value of less than 50% (value <50%). “B” represents a % inhibition value of equal to or more than 50% and less than 70% (50%≤value<70%). “C” represents a % inhibition value of equal to or more than 70% and less than 90% (70%≤value<90%). “D” represents a % inhibition value of equal or more than 90% (value ≥90%). In Table 7, the fold-change values are reported as “A”, “B”, “C”, or “D”. “A” represents a fold-change value of equal to or less than 0.1 (value ≤0.1). “B” represents a fold-change value of more than 0.1 and equal to or less than 0.5 (0.1<value≤0.5). “C” represents a fold-change value of more than 0.5 and equal to or less than 1 (0.5<value≤1). “D” represents a fold-change value of more than 1 (value >1).

IL-1β = IL-1β inhibition assay, LPS-induced PBMCs / CD14+ monocytes (Meso Scale); conditions: 1 h pretreatment, 100 ng/mL LPS 18-24 h
Outline: as §1

TNF-α = TNF-α inhibition assay, LPS-induced PBMCs / CD14+ monocytes (Meso Scale); conditions: 1 h pretreatment, 100 ng/mL LPS 18-24 h
Outline: as §1

MOLM-13 cells = experiment: MOLM-13 cell viability assay (CellTiter-Glo); conditions: Homo sapiens, MOLM-13, 72 h, 3 days, read-out: MOLM-13 Cell Viability % DMSO at 1 μM
Outline: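 MOLM-13 cells at 2500 cells/well were exposed to compound for 3 days at 37 °C. Viability was read by CellTiter-Glo luminescence and expressed as % of DMSO control, binned A (<50%), B (50–<70%), C (70–<90%) or D (≥90%).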

GSPT1 = biological target: T1, GSPT1 (Homo sapiens, UniProt P15170+Q96SW2); experiment: GSPT1 degradation assay (Western blot, MV-4-11 cells); conditions: MV4-11, 6-8 h
T1 construct: Whole cell extracts were prepared using RIPA buffer; endogenous in cells; host or cells: MV-4-11
T1 sequence (P15170 whole entry): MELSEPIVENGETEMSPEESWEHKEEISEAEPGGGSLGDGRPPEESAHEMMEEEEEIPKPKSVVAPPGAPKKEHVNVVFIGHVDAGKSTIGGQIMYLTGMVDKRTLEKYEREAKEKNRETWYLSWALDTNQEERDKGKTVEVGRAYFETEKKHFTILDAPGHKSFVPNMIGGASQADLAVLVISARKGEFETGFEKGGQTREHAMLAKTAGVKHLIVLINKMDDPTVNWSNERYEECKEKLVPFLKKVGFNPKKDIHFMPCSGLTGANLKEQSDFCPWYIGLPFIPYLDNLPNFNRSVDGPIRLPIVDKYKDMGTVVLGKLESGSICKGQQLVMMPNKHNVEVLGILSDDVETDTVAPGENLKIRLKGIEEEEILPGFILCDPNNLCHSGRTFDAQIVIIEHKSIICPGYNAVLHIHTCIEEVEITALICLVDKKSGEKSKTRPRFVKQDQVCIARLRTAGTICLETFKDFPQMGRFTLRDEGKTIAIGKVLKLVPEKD
T1 sequence (Q96SW2 whole entry): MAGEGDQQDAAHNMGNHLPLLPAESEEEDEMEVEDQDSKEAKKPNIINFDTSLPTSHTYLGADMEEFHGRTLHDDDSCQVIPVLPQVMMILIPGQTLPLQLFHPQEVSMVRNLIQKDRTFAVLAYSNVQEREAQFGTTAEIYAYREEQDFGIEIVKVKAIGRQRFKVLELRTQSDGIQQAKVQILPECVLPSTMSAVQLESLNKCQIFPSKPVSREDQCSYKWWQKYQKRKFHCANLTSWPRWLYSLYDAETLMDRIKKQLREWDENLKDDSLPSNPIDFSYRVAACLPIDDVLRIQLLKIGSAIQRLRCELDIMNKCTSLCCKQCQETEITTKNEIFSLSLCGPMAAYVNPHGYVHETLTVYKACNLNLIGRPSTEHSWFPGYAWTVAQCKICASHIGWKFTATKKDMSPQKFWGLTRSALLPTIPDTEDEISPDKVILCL
T1 sequence (Q16531 whole entry partner): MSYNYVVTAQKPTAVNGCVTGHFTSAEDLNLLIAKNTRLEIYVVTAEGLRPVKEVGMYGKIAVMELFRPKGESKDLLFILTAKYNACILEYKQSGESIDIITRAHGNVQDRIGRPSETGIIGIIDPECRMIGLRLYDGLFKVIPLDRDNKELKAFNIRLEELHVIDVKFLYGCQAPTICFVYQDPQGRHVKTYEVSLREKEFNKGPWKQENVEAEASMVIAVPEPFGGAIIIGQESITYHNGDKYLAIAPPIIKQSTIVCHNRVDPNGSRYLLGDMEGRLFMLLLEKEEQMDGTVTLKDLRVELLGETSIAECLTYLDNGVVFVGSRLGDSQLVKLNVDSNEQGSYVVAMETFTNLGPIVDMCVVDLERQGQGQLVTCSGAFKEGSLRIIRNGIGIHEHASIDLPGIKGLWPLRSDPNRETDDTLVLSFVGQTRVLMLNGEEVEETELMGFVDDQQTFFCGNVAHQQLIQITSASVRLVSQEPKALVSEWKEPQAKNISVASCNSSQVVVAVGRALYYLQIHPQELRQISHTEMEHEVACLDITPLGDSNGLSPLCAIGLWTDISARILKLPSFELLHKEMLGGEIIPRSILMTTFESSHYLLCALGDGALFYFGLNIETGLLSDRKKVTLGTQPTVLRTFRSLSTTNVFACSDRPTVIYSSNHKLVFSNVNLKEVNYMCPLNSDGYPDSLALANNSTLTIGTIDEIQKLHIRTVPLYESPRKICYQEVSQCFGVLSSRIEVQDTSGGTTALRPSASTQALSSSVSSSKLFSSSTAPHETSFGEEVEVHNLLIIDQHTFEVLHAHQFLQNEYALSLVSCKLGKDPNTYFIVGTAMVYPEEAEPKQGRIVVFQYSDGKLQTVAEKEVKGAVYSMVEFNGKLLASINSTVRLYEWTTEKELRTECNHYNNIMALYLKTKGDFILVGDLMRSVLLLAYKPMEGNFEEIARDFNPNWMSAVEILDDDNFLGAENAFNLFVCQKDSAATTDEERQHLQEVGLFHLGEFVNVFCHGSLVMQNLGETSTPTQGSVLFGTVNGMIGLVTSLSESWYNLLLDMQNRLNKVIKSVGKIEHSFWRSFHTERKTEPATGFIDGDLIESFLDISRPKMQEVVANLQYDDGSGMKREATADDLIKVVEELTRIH
Outline: (§2)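 Immunoblot-based % degradation, scored A–D in 25% steps (D ≥75%). Compound exposure was 6-8 h.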

CK1α = biological target: T2, CK1α (Homo sapiens, UniProt P48729+Q96SW2); experiment: CK1α degradation assay (Western blot, MV-4-11 cells); conditions: MV4-11, 6-8 h
T2 construct: Whole cell extracts were prepared using RIPA buffer; endogenous in cells; host or cells: MV-4-11
T2 sequence (P48729 whole entry): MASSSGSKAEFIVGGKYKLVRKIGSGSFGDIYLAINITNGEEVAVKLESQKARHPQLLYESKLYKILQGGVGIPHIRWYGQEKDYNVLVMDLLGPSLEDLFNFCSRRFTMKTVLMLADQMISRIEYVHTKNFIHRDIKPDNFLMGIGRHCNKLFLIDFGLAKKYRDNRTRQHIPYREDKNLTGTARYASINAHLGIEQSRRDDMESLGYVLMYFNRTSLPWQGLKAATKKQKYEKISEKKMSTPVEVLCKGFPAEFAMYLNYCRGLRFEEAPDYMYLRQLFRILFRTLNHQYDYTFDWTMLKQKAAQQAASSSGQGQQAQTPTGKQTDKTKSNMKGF
T2 sequence (Q96SW2 whole entry): as the sequence (Q96SW2 whole entry) above
T2 sequence (Q16531 whole entry partner): as the sequence (Q16531 whole entry partner) above
Description: MV-4-11 cells were grown in RPMI 1640 media supplemented with 10% fetal bovine serum, streptomycin and penicillin.
Cells were cultured at approximately 10^6 cells per mL and incubated in DMSO or the indicated compound for 6-8 h. Whole cell extracts were prepared using RIPA buffer according to manufacturer's protocol (Pierce). Briefly, 3×10^6 cells were washed once in PBS, the cell pellets were resuspended in RIPA buffer and allowed to incubate for 15 minutes on ice. Cells debris was removed by centrifugation and the cleared whole cell lysates were transferred to new tubes for further analysis.
For Western blot analysis, whole cell protein extracts were separated on 4-12% SDS-polyacrylamide gels, transferred to nitrocellulose and probed with the indicated primary antibodies. Membranes were subsequently washed and probed with the appropriate IRDye secondary antibodies (LI-COR). The signal was detected using the Odyssey Imaging System (LI-COR).
The following antibodies were used in these studies: Anti-eRF3/GSPT1: Abcam, ab126090 (Cambridge, Mass.); Anti-Ikaros: Abcam, ab191394 (Cambridge, Mass.); Anti-CK1α: Abcam, ab108296 (Cambridge, Mass.); Anti-CDK9: Santa Cruz Biotechnology, sc13130 (Dallas, Tex.); Anti-CDK16: Millipore Sigma, HPA001366 (St. Louis, Mo.); 3-actin (8H10comD10) mouse monoclonal antibody: Cell Signaling Technology, #3700 (Danvers, Mass.); IRDye 680RD Goat anti-rabbit antibody: LI-COR, 926-68071 (Lincoln, Nebr.); IRDye 800CW Goat anti-mouse antibody: LI-COR, 926-32210 (Lincoln, Nebr.).
CDK9 activities are shown in Table 4 at two different concentrations. CDK16 activities are shown in Table 5 at two different concentrations. In each of Tables 1-5, the % degradation values are reported as “A”, “B”, “C”, or “D”. “A” represents a % degradation value of less than 25% (value <25%). “B” represents a % degradation value of equal to or more than 25% and less than 50% (25%≤value<50%). “C” represents a % degradation value of equal to or more than 50% and less than 75% (50%≤value<75%). “D” represents a % degradation value of equal to or more than 75% (value ≥75%).

CDK16 = biological target: T3, CDK16 (Homo sapiens, UniProt Q00536); experiment: CDK16 degradation assay (Western blot, MV-4-11 cells); conditions: 6-8 h; for Dmax at 0.1 µM: MV4-11, 0.1 μM; for Dmax at 1 µM: MV4-11, 1 μM
T3 construct: Whole cell extracts were prepared using RIPA buffer; endogenous in cells; host or cells: MV-4-11
T3 sequence (Q00536 whole entry): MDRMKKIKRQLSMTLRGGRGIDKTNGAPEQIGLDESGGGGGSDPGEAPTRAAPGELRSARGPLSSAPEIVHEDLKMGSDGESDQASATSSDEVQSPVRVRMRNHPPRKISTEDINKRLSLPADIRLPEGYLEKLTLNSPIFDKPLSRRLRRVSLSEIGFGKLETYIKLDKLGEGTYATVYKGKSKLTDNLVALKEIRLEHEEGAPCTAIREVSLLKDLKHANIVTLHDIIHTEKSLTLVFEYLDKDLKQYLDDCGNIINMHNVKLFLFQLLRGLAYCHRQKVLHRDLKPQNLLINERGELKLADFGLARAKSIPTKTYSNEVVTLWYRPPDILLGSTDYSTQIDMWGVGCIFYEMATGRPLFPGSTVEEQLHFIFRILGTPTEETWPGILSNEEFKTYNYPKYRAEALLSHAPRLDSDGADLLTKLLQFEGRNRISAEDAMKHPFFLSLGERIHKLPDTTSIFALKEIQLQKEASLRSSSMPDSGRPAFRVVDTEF
Outline: as §2

IKAROS = biological target: T4, IKAROS (Homo sapiens, UniProt Q13422+Q96SW2); experiment: IKAROS degradation assay (Western blot, MV-4-11 cells); conditions: MV4-11, 6-8 h
T4 construct: endogenous in cells; host or cells: MV-4-11
T4 sequence (Q13422 whole entry): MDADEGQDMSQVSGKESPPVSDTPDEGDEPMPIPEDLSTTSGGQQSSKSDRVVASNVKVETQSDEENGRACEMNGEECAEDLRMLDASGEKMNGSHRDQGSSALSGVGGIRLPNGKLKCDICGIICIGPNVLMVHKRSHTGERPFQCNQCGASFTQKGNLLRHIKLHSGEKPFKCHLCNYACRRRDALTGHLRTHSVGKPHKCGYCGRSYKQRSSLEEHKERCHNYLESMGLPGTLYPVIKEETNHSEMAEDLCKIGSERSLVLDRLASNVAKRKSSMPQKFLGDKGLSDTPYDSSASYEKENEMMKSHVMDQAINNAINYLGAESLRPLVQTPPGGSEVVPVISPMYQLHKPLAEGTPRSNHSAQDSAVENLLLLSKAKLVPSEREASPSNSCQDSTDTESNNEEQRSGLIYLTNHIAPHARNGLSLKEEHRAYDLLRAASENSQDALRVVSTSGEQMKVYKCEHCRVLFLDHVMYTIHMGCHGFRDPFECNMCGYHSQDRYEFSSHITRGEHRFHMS
T4 sequence (Q96SW2 whole entry): as the sequence (Q96SW2 whole entry) above
T4 sequence (Q16531 whole entry partner): as the sequence (Q16531 whole entry partner) above
Outline: as §2

CDK9 = biological target: T5, CDK9 (Homo sapiens, UniProt P50750); experiment: CDK9 degradation assay (Western blot, MV-4-11 cells); conditions: 6-8 h; for Dmax at 0.1 µM: MV4-11, 0.1 μM; for Dmax at 1 µM: MV4-11, 1 μM
T5 construct: Whole cell extracts were prepared using RIPA buffer; endogenous in cells; host or cells: MV-4-11
T5 sequence (P50750 whole entry): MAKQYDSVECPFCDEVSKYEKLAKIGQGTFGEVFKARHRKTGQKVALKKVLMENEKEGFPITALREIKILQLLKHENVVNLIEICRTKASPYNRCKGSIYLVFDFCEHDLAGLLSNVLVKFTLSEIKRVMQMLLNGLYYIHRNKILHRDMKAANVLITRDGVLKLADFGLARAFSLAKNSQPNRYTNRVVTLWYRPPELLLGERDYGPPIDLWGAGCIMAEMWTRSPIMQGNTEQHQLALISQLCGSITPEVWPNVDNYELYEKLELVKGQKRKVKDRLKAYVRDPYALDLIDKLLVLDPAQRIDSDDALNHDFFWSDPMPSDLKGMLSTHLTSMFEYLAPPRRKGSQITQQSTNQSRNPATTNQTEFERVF
Outline: as §2

Work on `Cn1ncc(-c2nc(N[C@H]3CC[C@H](NCC(=O)NCCOCCOCCOCCNC(=O)NCc4cc5c(s4)C(=O)N(C4CCC(=O)NC4=O)C5)CC3)ncc2Cl)c1CC1CC1` (some centres unmarked) [Compound 46, 2-(((1r,4r)-4-((5-chloro-4-(5-(cyclopropylmethyl)-1-methyl-1H-pyrazol-4-yl)pyrimidin-2-yl)amino)cyclohexyl)amino)-N-(1-(5-(2,6-dioxopiperidin-3-yl)-6-oxo-5,6-dihydro-4H-thieno[2,3-c]pyrrol-2-yl)-3-oxo-7,10,13-trioxa-2,4-diazapentadecan-15-yl)acetamide] yielded an inhibition at 1 µM (IL-6) of 70 to 90%, a fold induction at 1 µM (IL-2) of 0.1 to 0.5 and an inhibition at 1 µM (IL-1β) of 70 to 90%. The inhibition at 1 µM (TNF-α) was 50 to 70% and the viability at 1 µM (MOLM-13 cells) was greater than 90%.
`Cn1ncc(-c2nc(N[C@H]3CC[C@H](NCC(=O)NCCCCNCC(=O)NCc4scc5c4CN(C4CCC(=O)NC4=O)C5=O)CC3)ncc2F)c1CC1CC1` (some centres unmarked) [Compound 39, 2-(((1r,4r)-4-((4-(5-(cyclopropylmethyl)-1-methyl-1H-pyrazol-4-yl)-5-fluoropyrimidin-2-yl)amino)cyclohexyl)amino)-N-(4-((2-(((5-(2,6-dioxopiperidin-3-yl)-4-oxo-5,6-dihydro-4H-thieno[3,4-c]pyrrol-1-yl)methyl)amino)-2-oxoethyl)amino)butyl)acetamide] was tested, and the Dmax at 1 µM (GSPT1) was 50 to 75%, the Dmax at 1 µM (CK1α) was 25 to 50% and the Dmax at 0.1 µM (CDK16) was less than 25%. The Dmax at 1 µM (CDK16) was no less than 75%, the Dmax at 1 µM (IKAROS) was 25 to 50% and the Dmax at 0.1 µM (CDK9) was 25 to 50%. The Dmax at 1 µM (CDK9) was no less than 75% and the viability at 1 µM (MOLM-13 cells) was greater than 90%.
Work on `Cn1ncc(-c2nc(N[C@H]3CC[C@H](NCCOCCOCCOCCOCCNc4cccc5c4C(=O)N(C4CCC(=O)NC4=O)C5=O)CC3)ncc2Cl)c1CC1CC1` (some centres unmarked) [Compound 64, 4-((14-(((1r,4r)-4-((5-chloro-4-(5-(cyclopropylmethyl)-1-methyl-1H-pyrazol-4-yl)pyrimidin-2-yl)amino)cyclohexyl)amino)-3,6,9,12-tetraoxatetradecyl)amino)-2-(2,6-dioxopiperidin-3-yl)isoindoline-1,3-dione] yielded a Dmax at 1 µM (GSPT1) of no less than 75%, a Dmax at 1 µM (CK1α) of 25 to 50% and a Dmax at 1 µM (IKAROS) of no less than 75%. The viability at 1 µM (MOLM-13 cells) was greater than 90%.
With `Cn1ncc(-c2nc(N[C@H]3CC[C@H](NCC(=O)NCCCCCNCC(=O)NCc4cc5c(s4)C(=O)N(C4CCC(=O)NC4=O)C5)CC3)ncc2Cl)c1CC1CC1` (some centres unmarked) [Compound 30, 2-(((1r,4r)-4-((5-chloro-4-(5-(cyclopropylmethyl)-1-methyl-1H-pyrazol-4-yl)pyrimidin-2-yl)amino)cyclohexyl)amino)-N-(5-((2-(((5-(2,6-dioxopiperidin-3-yl)-6-oxo-5,6-dihydro-4H-thieno[2,3-c]pyrrol-2-yl)methyl)amino)-2-oxoethyl)amino)pentyl)acetamide] the Dmax at 1 µM (GSPT1) was 50 to 75%, the Dmax at 1 µM (CK1α) was less than 25% and the Dmax at 0.1 µM (CDK16) was 25 to 50%. The Dmax at 1 µM (CDK16) was 50 to 75%, the Dmax at 1 µM (IKAROS) was 50 to 75% and the Dmax at 0.1 µM (CDK9) was 50 to 75%. For the same compound, the Dmax at 1 µM (CDK9) was 50 to 75% and the viability at 1 µM (MOLM-13 cells) was greater than 90%.
`Cn1ncc(-c2nc(N[C@H]3CC[C@H](NCC(=O)NCCNCC(=O)NCc4cc5c(s4)C(=O)N(C4CCC(=O)NC4=O)C5)CC3)ncc2Cl)c1CC1CC1` (some centres unmarked) [Compound 40, 2-(((1r,4r)-4-((5-chloro-4-(5-(cyclopropylmethyl)-1-methyl-1H-pyrazol-4-yl)pyrimidin-2-yl)amino)cyclohexyl)amino)-N-(2-((2-(((5-(2,6-dioxopiperidin-3-yl)-6-oxo-5,6-dihydro-4H-thieno[2,3-c]pyrrol-2-yl)methyl)amino)-2-oxoethyl)amino)ethyl)acetamide] was tested, and the Dmax at 1 µM (GSPT1) was no less than 75%, the Dmax at 1 µM (CK1α) was 25 to 50% and the Dmax at 0.1 µM (CDK16) was 25 to 50%. The Dmax at 1 µM (CDK16) was 50 to 75%, the Dmax at 1 µM (IKAROS) was 50 to 75% and the Dmax at 0.1 µM (CDK9) was 50 to 75%. For the same compound, the Dmax at 1 µM (CDK9) was no less than 75% and the viability at 1 µM (MOLM-13 cells) was 70 to 90%.
In the case of `CC(C)(C)c1cnc(CSc2cnc(NC(=O)C3CCN(CC(=O)NCCCCCNCC(=O)NCc4scc5c4CN(C4CCC(=O)NC4=O)C5=O)CC3)s2)o1` (centres unmarked) [Compound 33, N-(5-(((5-(tert-butyl)oxazol-2-yl)methyl)thio)thiazol-2-yl)-1-(2-((5-((2-(((5-(2,6-dioxopiperidin-3-yl)-4-oxo-5,6-dihydro-4H-thieno[3,4-c]pyrrol-1-yl)methyl)amino)-2-oxoethyl)amino)pentyl)amino)-2-oxoethyl)piperidine-4-carboxamide], the Dmax at 1 µM (GSPT1) is reported as no less than 75%, the Dmax at 1 µM (CK1α) is reported as no less than 75% and the Dmax at 0.1 µM (CDK16) is reported as less than 25%. It also gave a Dmax at 1 µM (CDK16) of 50 to 75%, a Dmax at 1 µM (IKAROS) of 50 to 75% and a Dmax at 0.1 µM (CDK9) of no less than 75%. It also gave a Dmax at 1 µM (CDK9) of no less than 75% and a viability at 1 µM (MOLM-13 cells) greater than 90%.
With `Cn1ncc(-c2nc(N[C@H]3CC[C@H](NCC(=O)NCCNC(=O)NCc4cc5c(s4)C(=O)N(C4CCC(=O)NC4=O)C5)CC3)ncc2Cl)c1CC1CC1` (some centres unmarked) [Compound 45, 2-(((1r,4r)-4-((5-chloro-4-(5-(cyclopropylmethyl)-1-methyl-1H-pyrazol-4-yl)pyrimidin-2-yl)amino)cyclohexyl)amino)-N-(2-(3-((5-(2,6-dioxopiperidin-3-yl)-6-oxo-5,6-dihydro-4H-thieno[2,3-c]pyrrol-2-yl)methyl)ureido)ethyl)acetamide] the Dmax at 1 µM (GSPT1) was 25 to 50%, the Dmax at 1 µM (CK1α) was less than 25% and the Dmax at 1 µM (IKAROS) was 25 to 50%. For the same compound, the viability at 1 µM (MOLM-13 cells) was greater than 90%.
In the case of `Cn1ncc(-c2nc(N[C@H]3CC[C@H](NCC(=O)NCCCCNCC(=O)NCc4cc5c(s4)C(=O)N(C4CCC(=O)NC4=O)C5)CC3)ncc2Cl)c1CC1CC1` (some centres unmarked) [Compound 35, 2-(((1r,4r)-4-((5-chloro-4-(5-(cyclopropylmethyl)-1-methyl-1H-pyrazol-4-yl)pyrimidin-2-yl)amino)cyclohexyl)amino)-N-(4-((2-(((5-(2,6-dioxopiperidin-3-yl)-6-oxo-5,6-dihydro-4H-thieno[2,3-c]pyrrol-2-yl)methyl)amino)-2-oxoethyl)amino)butyl)acetamide], the Dmax at 1 µM (GSPT1) is reported as no less than 75%, the Dmax at 1 µM (CK1α) is reported as 25 to 50% and the Dmax at 0.1 µM (CDK16) is reported as less than 25%. It also gave a Dmax at 1 µM (CDK16) of 50 to 75%, a Dmax at 1 µM (IKAROS) of 50 to 75% and a Dmax at 0.1 µM (CDK9) of 25 to 50%. It also gave a Dmax at 1 µM (CDK9) of 25 to 50% and a viability at 1 µM (MOLM-13 cells) greater than 90%.
